The test system of one assay is hPMBC. Nature of the assay: Chymotrypsin-like ProteasomeGlo assay in hPBMC. Type of assay: cell-based. The conditions noted are these: Homo sapiens; read-out: Pglo hPBMC. In a few lines:
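B cells isolated from human PBMC (buffy coats, density gradient, magnetic isolation). Cells treated with compound for 105 min at 37 °C, with staurosporine and DMSO included. Chymotrypsin-like proteasome activity read by luminescence with Suc-LLVY-Glo substrate to derive IC50.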

Another assay deals with HT-29 cells. The experiment in a line: CellTiter-Glo luminescent cell viability assay with HT-29 cells (72h incubation). The class given is cell-based, human. The conditions noted are these: Homo sapiens, HT-29, HT29 cells, read-out: CTG HT29. The essentials: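 400 cells per well in DMEM/10% FCS were dosed after 24 h and kept 72 h at 37 °C, 5% CO2. ATP-based luminescence (CellTiter-Glo) normalized to DMSO and 10 μM staurosporine controls; IC50 by dose-response fit.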

The target in assay [1] is T1, β5 subunit of the human constitutive proteasome (CPS) (Homo sapiens, UniProt P28074).
T1 construct: purchased Boston Biochem E-360
Nature of the assay: β5 inhibition assay, human constitutive proteasome (Suc-LLVY-AMC). Type of assay: biochemical. The conditions noted are these: IC50 class, Suc-LLVY-AMC substrate. The protocol: The enzymatic activity of the β5 subunit of the human constitutive proteasome (CPS) is analyzed. In another assay, which differs from the assay of the human constitutive proteasome only in using the human immunoproteasome (IPS) the enzymatic activity of the β5 subunit of the human immunoproteasome (IPS) is analyzed. […] Inhibition is indicated as IC50 [nM] (“-”=not measured).

The values below come from patent publication US20240415819A1, “MACROCYCLIC COMPOUNDS AS PROTEASOME SUBUNIT BETA TYPE-5 INHIBITORS” (Lead Discovery Center GmbH, priority 2021, published 2024).

Bounds are passed on as bounds.

As for `CC(=O)N[C@H]1CCCC(=O)N2CC3CC(Oc4ccc(C)c(c4)CNC(=O)[C@H](CCc4ccccc4)NC1=O)C3C2` (stereo partly drawn) [Compound 191, N-((11R,15S,7S,10S)-3^4-methyl-6,9,14-trioxo-7-phenethyl-2-oxa-13,5,8-triaza-1(7,3)-bicyclo[3.2.0]heptana-3(1,3)-benzenacyclotetradecaphane-10-yl)acetamide], the IC50 in the assay on hPMBC is 100 to 500 nM; in the assay on HT-29 cells it was 1000 to 5000 nM; in assay [1] it was 500 to 1000 nM.
As to `Cc1ccc2cc1CNC(=O)[C@H](CCc1ccccc1)NC(=O)[C@@H](NS(=O)(=O)Cc1ccccc1)CC(=O)N1CCCC(CCO2)C1` (stereo partly drawn) [Compound 216, N-((9S,12S)-5^4-methyl-8,11,14-trioxo-9-phenethyl-4-oxa-7,10-diaza-1(3,1)-piperidina-5(1,3)-benzenacyclotetradecaphane-12-yl)-1-phenylmethanesulfonamide], the IC50 (in the assay on hPMBC; with HT-29 cells; in assay [1]) was below 100 nM in each case.
Take `COCCOCCOCCOCCOCCC(=O)N[C@H]1CC(=O)N2CCCC(CCOc3ccc(C)c(c3)CNC(=O)[C@H](CCc3ccccc3)NC1=O)C2` (stereo partly drawn) [Compound 219, N-((9S,12S)-5^4-methyl-8,11,14-trioxo-9-phenethyl-4-oxa-7,10-diaza-1(3,1)-piperidina-5(1,3)-benzenacyclotetradecaphane-12-yl)-2,5,8,11,14-pentaoxaheptadecan-17-amide]: the IC50 (in the assay with hPMBC; with HT-29 cells; in assay [1]) was below 100 nM in each case.
In the case of `Cc1ccc2cc1CNC(=O)C(c1cnn(C)c1)NC(=O)CCC(=O)N1CCCC(CCO2)C1` (stereo not drawn) [Compound 116, 5^4-methyl-9-(1-methyl-1H-pyrazol-4-yl)-4-oxa-7,10-diaza-1(3,1)-piperidina-5(1,3)-benzenacyclotetradecaphane-8,11,14-trione], the IC50 in the assay on hPMBC was 500 to 1000 nM; in the assay with HT-29 cells, 100 to 500 nM; in assay [1], above 5000 nM.
`Cc1ccc2cc1CNC(=O)[C@@H](CCc1ccccc1)NC(=O)[C@@H](NC(=O)OCc1ccccc1)CC(=O)N1CCC[C@H](CCO2)C1` [Compound 289, benzyl ((13R,9R,12S)-5^4-methyl-8,11,14-trioxo-9-phenethyl-4-oxa-7,10-diaza-1(3,1)-piperidina-5(1,3)-benzenacyclotetradecaphane-12-yl)carbamate]: the values for the IC50 (with hPMBC; in the assay on HT-29 cells; in assay [1]) were 500 to 1000 nM, 100 to 500 nM and 100 to 500 nM, respectively.
Take `Cc1cc2cc(c1C)CNC(=O)[C@H](Cc1c[nH]c3ccccc13)NC(=O)CCC(=O)N1CCCC(CCO2)C1` (stereo partly drawn) [Compound 120, (9S)-9-((1H-indol-3-yl)methyl)-5^4,5^5-dimethyl-4-oxa-7,10-diaza-1(3,1)-piperidina-5(1,3)-benzenacyclotetradecaphane-8,11,14-trione]: the IC50 with hPMBC was 100 to 500 nM; in the assay on HT-29 cells it was 100 to 500 nM; in assay [1], below 100 nM.
For `C=CS(=O)(=O)N[C@H]1CC(=O)N2CCCC(CCOc3ccc(C)c(c3)CNC(=O)[C@H](CCc3ccccc3)NC1=O)C2` (stereo partly drawn) [Compound 180, N-((9S,12S)-5^4-methyl-8,11,14-trioxo-9-phenethyl-4-oxa-7,10-diaza-1(3,1)-piperidina-5(1,3)-benzenacyclotetradecaphane-12-yl)ethenesulfonamide], the IC50 (with hPMBC; in the assay with HT-29 cells; in assay [1]) was below 100 nM throughout.
With `Cc1ccc2cc1CNC(=O)[C@H](CCc1ccccc1)NC(=O)[C@@H](NC(=O)Cc1ccc(N)cc1)CC(=O)N1CCCC(CCO2)C1` (stereo partly drawn) [Compound 128, 2-(4-aminophenyl)-N-((9S,12S)-5^4-methyl-8,11,14-trioxo-9-phenethyl-4-oxa-7,10-diaza-1(3,1)-piperidina-5(1,3)-benzenacyclotetradecaphane-12-yl)acetamide], the IC50 (in the assay on hPMBC; in the assay on HT-29 cells; in assay [1]) was below 100 nM throughout.
